Values after ≈ are worked out from the molar mass of the structure shown.
Tested on: M. tuberculosis
Format: cell-based, Mycobacterium tuberculosis
Details: pH 6.8

| SMILES | MIC in the media 7H9 | MIC in the media L-Ala | MIC in the media SBA | MIC in the media SLac |
| --- | --- | --- | --- | --- |
| O=C(O)c1cc2ccccc2cc1Nc1ccccc1 [compound 40275] | ≥ 26.33 µg/mL | 3.29 µg/mL (≈ 12.5 µM) | 3.29 µg/mL (≈ 12.5 µM) | 0.84 µg/mL (≈ 3.19 µM) |
| Cc1c(Cl)ccc2c(C(=O)O)cc(-c3ccccc3)nc12 [compound 40306] | ≥ 29.77 µg/mL | 7.44 µg/mL (≈ 25 µM) | 7.44 µg/mL (≈ 25 µM) | 3.72 µg/mL (≈ 12.5 µM) |
| CCOC(=O)c1ccc(N)cc1 [compound 41531] | ≥ 800 µg/mL | 0.26 µg/mL (≈ 1.57 µM) | 0.26 µg/mL (≈ 1.57 µM) | 0.26 µg/mL (≈ 1.57 µM) |
| Nc1cc(Nc2ccc(Br)cc2)nc(N)n1 [compound 42135] | ≥ 28.01 µg/mL | 7.00 µg/mL (≈ 25 µM) | 14.01 µg/mL (≈ 50 µM) | 3.50 µg/mL (≈ 12.5 µM) |
| O=C1C[C@@H](c2ccccc2)Oc2cc(O)cc(O)c21 [compound 43318] | ≥ 101.70 µg/mL | 6.36 µg/mL (≈ 24.8 µM) | 6.36 µg/mL (≈ 24.8 µM) | 0.41 µg/mL (≈ 1.6 µM) |
| O=C1C(O)=C(c2ccccc2)C(=O)C(O)=C1c1ccccc1 [compound 44175] | ≥ 29.23 µg/mL | 7.31 µg/mL (≈ 25 µM) | 3.65 µg/mL (≈ 12.5 µM) | 3.65 µg/mL (≈ 12.5 µM) |
| CN(CC(=O)O)Cc1c(O)c(Cl)cc(Cl)c1Cl [compound 45114] | ≥ 119.40 µg/mL | 29.85 µg/mL (≈ 100 µM) | 14.93 µg/mL (≈ 50 µM) | 3.73 µg/mL (≈ 12.5 µM) |
| C=C1C(=O)OC2CC1C(OC(C)=O)C/C(C)=C/CC/C(C)=C\CCC2(C)O (centres unmarked) [compound 46728] | ≥ 75.30 µg/mL | 37.65 µg/mL (≈ 100 µM) | 9.41 µg/mL (≈ 25 µM) | 4.71 µg/mL (≈ 12.5 µM) |
| c1ccc(Sc2ncnc3ccccc23)cc1 [compound 51331] | ≥ 23.83 µg/mL | 11.92 µg/mL (≈ 50 µM) | 11.92 µg/mL (≈ 50 µM) | 2.98 µg/mL (≈ 12.5 µM) |
| Oc1ccc(Cl)cc1Sc1cc(Cl)ccc1O [compound 55636] | ≥ 114.88 µg/mL | 1.80 µg/mL (≈ 6.27 µM) | 0.92 µg/mL (≈ 3.2 µM) | 0.92 µg/mL (≈ 3.2 µM) |
| COC12C(COC(N)=O)C3=C(C(=O)C(C)=C(N)C3=O)N1CC1C2N1C (centres unmarked) [compound 56410] | ≥ 0.28 µg/mL | 0.28 µg/mL (≈ 0.804 µM) | 0.28 µg/mL (≈ 0.804 µM) | 0.56 µg/mL (≈ 1.61 µM) |
| COc1ccc(C(=O)c2ccccc2O)c(O)c1 [compound 56769] | ≥ 97.70 µg/mL | 24.42 µg/mL (≈ 100 µM) | 24.42 µg/mL (≈ 100 µM) | 0.76 µg/mL (≈ 3.11 µM) |
| O=[N+]([O-])c1cc([N+](=O)[O-])c2cccnc2c1O [compound 57103] | ≥ 23.52 µg/mL | 0.75 µg/mL (≈ 3.19 µM) | 0.75 µg/mL (≈ 3.19 µM) | 0.75 µg/mL (≈ 3.19 µM) |
| COc1ccc(C2CC(=O)c3c(O)cc(O)cc3O2)cc1O (centres unmarked) [compound 57654] | ≥ 120.91 µg/mL | 7.56 µg/mL (≈ 25 µM) | 7.56 µg/mL (≈ 25 µM) | 1.89 µg/mL (≈ 6.25 µM) |
| O=c1[nH]c(=S)[nH]cc1Oc1ccc(Cl)cc1Cl [compound 73753] | ≥ 115.66 µg/mL | 14.46 µg/mL (≈ 50 µM) | 14.46 µg/mL (≈ 50 µM) | 1.81 µg/mL (≈ 6.26 µM) |
| CC[C@@H](O)C[C@H]1CCC[C@@]2(C[C@@H]3OC(=O)/C=C/[C@@](C)(O)[C@@H](O)[C@H](C)[C@@H](O)[C@H](OC4CCC(N(C)C)C(C)O4)[C@@H](O)[C@](C)(O)CCCCC/C=C/[C@@H]4CC(C)(C)O[C@@]4(O)C[C@H](O2)[C@H]3C)O1 (some centres unmarked) [compound 76627] | ≥ 22.81 µg/mL | 5.7 µg/mL (≈ 6.25 µM) | 11.4 µg/mL (≈ 12.5 µM) | 5.7 µg/mL (≈ 6.25 µM) |
| CCOC(CNCc1cc(C)c2[nH]c3ccccc3c2c1C)OCC [compound 79486] | ≥ 17.03 µg/mL | 8.51 µg/mL (≈ 25 µM) | 8.51 µg/mL (≈ 25 µM) | 2.13 µg/mL (≈ 6.26 µM) |
| Cc1ccc(NC(c2ccccc2)c2ccc3cccnc3c2O)cc1 (centres unmarked) [compound 84093] | ≥ 136.16 µg/mL | 17.02 µg/mL (≈ 50 µM) | 2.13 µg/mL (≈ 6.26 µM) | 2.13 µg/mL (≈ 6.26 µM) |
| CCCCc1oc2ccccc2c1C(=O)c1cc(I)c(OCCN(CC)CC)c(I)c1.Cl [compound 85442] | ≥ 8.52 µg/mL | 4.26 µg/mL | 2.18 µg/mL | 1.09 µg/mL |
| OC(COc1ccc(Cl)cc1)CN1CCN(c2cccc(Cl)c2)CC1 (centres unmarked) [compound 91340] | ≥ 38.13 µg/mL | 4.77 µg/mL (≈ 12.5 µM) | 9.53 µg/mL (≈ 25 µM) | 4.77 µg/mL (≈ 12.5 µM) |
| Sc1nc2cc(-c3ccccc3)ccc2o1 [compound 93817] | ≥ 22.73 µg/mL | 1.42 µg/mL (≈ 6.25 µM) | 0.73 µg/mL (≈ 3.21 µM) | 0.73 µg/mL (≈ 3.21 µM) |

| SMILES | MIC in the media 7H9 | MIC in the media L-Ala | MIC in the media SBA | MIC in the media SLac |
| --- | --- | --- | --- | --- |
| Nc1ccc(N=Nc2ccc(O)cc2)c(N)n1 [compound 108235] | ≥ 22.92 µg/mL | 11.46 µg/mL (≈ 50 µM) | 11.46 µg/mL (≈ 50 µM) | 5.73 µg/mL (≈ 25 µM) |
| CCC(C)c1occ2c(O)c(C(=O)O)c(=O)cc-2c1C (centres unmarked) [compound 114344] | ≥ 110.51 µg/mL | 27.63 µg/mL (≈ 100 µM) | 6.91 µg/mL (≈ 25 µM) | 1.73 µg/mL (≈ 6.26 µM) |
| C1C2CC3C1C3/C2=N\N=C1/C2CC3C(C2)C13 [compound 122987] | ≥ 88.52 µg/mL | 1.38 µg/mL (≈ 6.5 µM) | 11.06 µg/mL (≈ 52.1 µM) | 5.53 µg/mL (≈ 26 µM) |
| COc1ccc(-c2coc3cc(O)cc(O)c3c2=O)cc1 [compound 123538] | ≥ 113.70 µg/mL | 7.11 µg/mL (≈ 25 µM) | 7.11 µg/mL (≈ 25 µM) | 0.45 µg/mL (≈ 1.58 µM) |
| NN=C1C(Cl)=C(Cl)C(Cl)=C1Cl [compound 126405] | ≥ 23.19 µg/mL | 5.80 µg/mL (≈ 25 µM) | 5.80 µg/mL (≈ 25 µM) | 5.80 µg/mL (≈ 25 µM) |
| Cc1ccc2ccc(C#N)cc2c1O [compound 128068] | ≥ 18.32 µg/mL | 9.16 µg/mL (≈ 50 µM) | 9.16 µg/mL (≈ 50 µM) | 2.29 µg/mL (≈ 12.5 µM) |
| CCCCOC(=O)c1ccc(N)cc1 [compound 128464] | ≥ 800 µg/mL | 0.06 µg/mL (≈ 0.31 µM) | 0.06 µg/mL (≈ 0.31 µM) | 0.06 µg/mL (≈ 0.31 µM) |
| COC1C=COC2(C)Oc3c(C)c(O)c4c(O)c(cc(O)c4c3C2=O)NC(=O)C(C)=CC=CC(C)C(O)C(C)C(O)C(C)C(OC(C)=O)C1C (centres unmarked) [compound 133100] | ≥ 0.56 µg/mL | 0.56 µg/mL (≈ 0.803 µM) | 0.56 µg/mL (≈ 0.803 µM) | 0.56 µg/mL (≈ 0.803 µM) |
| CSc1nc(=O)[nH]nc1Sc1ccccc1 [compound 134058] | ≥ 25.13 µg/mL | 6.28 µg/mL (≈ 25 µM) | 3.14 µg/mL (≈ 12.5 µM) | 3.14 µg/mL (≈ 12.5 µM) |
| Cc1ccc(C)c(N2CCN(c3ccncc3N)CC2)c1 [compound 147866] | ≥ 14.12 µg/mL | 14.12 µg/mL (≈ 50 µM) | 7.06 µg/mL (≈ 25 µM) | 1.77 µg/mL (≈ 6.27 µM) |
| CC1(C)CCSC(C=Cc2ccccc2)=N1 [compound 150954] | ≥ 11.57 µg/mL | 5.78 µg/mL (≈ 25 µM) | 2.89 µg/mL (≈ 12.5 µM) | 2.89 µg/mL (≈ 12.5 µM) |
| O=[N+]([O-])/C=C/c1cc2ccccc2[nH]1 [compound 150982] | ≥ 18.82 µg/mL | 9.41 µg/mL (≈ 50 µM) | 4.70 µg/mL (≈ 25 µM) | 2.35 µg/mL (≈ 12.5 µM) |
| CCOc1ccc(N=Nc2ccc(N)cc2N)cc1 [compound 190374] | ≥ 6.41 µg/mL | 3.20 µg/mL (≈ 12.5 µM) | 6.41 µg/mL (≈ 25 µM) | 3.20 µg/mL (≈ 12.5 µM) |
| Cc1ccc([S+]([O-])c2ccc([N+](=O)[O-])c3nonc23)cc1 (centres unmarked) [compound 228150] | ≥ 30.33 µg/mL | 7.58 µg/mL (≈ 25 µM) | 3.79 µg/mL (≈ 12.5 µM) | 3.79 µg/mL (≈ 12.5 µM) |
| O=[N+]([O-])c1ccc(Sc2cccc[n+]2[O-])c2nonc12 [compound 228155] | ≥ 0.93 µg/mL | 0.93 µg/mL (≈ 3.2 µM) | 0.93 µg/mL (≈ 3.2 µM) | 0.93 µg/mL (≈ 3.2 µM) |
| Cn1ccc(=Nc2ccc(NC(=O)c3ccc(N=c4ccn(C)c5ccc([N+](=O)[O-])cc45)cc3)cc2)cc1 [compound 260594] | ≥ 0.81 µg/mL | 0.81 µg/mL (≈ 1.61 µM) | 1.61 µg/mL (≈ 3.19 µM) | 0.40 µg/mL (≈ 0.793 µM) |
| CSc1ccc2c(c1)C(N1CCN(C)CC1)Cc1ccccc1S2.O=C(O)/C=C\C(=O)O (centres unmarked) [compound 281816] | ≥ 11.82 µg/mL | 2.95 µg/mL | 2.95 µg/mL | 2.95 µg/mL |
| O=C1c2cccc3cc([N+](=O)[O-])cc(c23)C(=O)N1CCN1CCCC1 [compound 300289] | ≥ 8.48 µg/mL | 4.24 µg/mL (≈ 12.5 µM) | 2.12 µg/mL (≈ 6.25 µM) | 2.12 µg/mL (≈ 6.25 µM) |
| c1ccc2c(c1)Sc1ccccc1N2CC1CN2CCC1CC2 (centres unmarked) [compound 303612] | ≥ 16.13 µg/mL | 8.06 µg/mL (≈ 25 µM) | 8.06 µg/mL (≈ 25 µM) | 4.03 µg/mL (≈ 12.5 µM) |
| OC(c1cc(-c2ccc(C(F)(F)F)cc2)nc(C(F)(F)F)c1)C1CCCCN1 (centres unmarked) [compound 305798] | ≥ 10.11 µg/mL | 1.25 µg/mL (≈ 3.09 µM) | 2.53 µg/mL (≈ 6.26 µM) | 2.53 µg/mL (≈ 6.26 µM) |

Source: patent publication US20240148723A1, “MYCOBACTERIUM TUBERCULOSIS COMPOSITIONS AND METHODS” (priority 2021, published 2024)
